The values that follow come from PubChem BioAssay (NCI).

Where “and” joins values, the source holds several entries; their conditions need not be identical. Equal entries are not always repeated.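 The compound was tested at five concentrations on cells cultured in 96-well plates, with a 48-hour exposure period. The concentration for 50% growth inhibition is given as GI50. TGI is the concentration that stops growth completely.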 Some results are limits rather than exact numbers.

The test system of the first experiment is RPMI-8226 leukemia. As to the kind of experiment: inhibition of tumour cell growth, NCI panel, 48 h.
In the case of `CC(=O)Oc1ccccc1C(=O)Nc1ncc([N+](=O)[O-])s1`, the GI50 is 0.677 µM and the TGI was above 100 µM.

As for `O=C1NC(=O)C(c2cccc([N+](=O)[O-])c2)=C1Nc1cc(Cl)c(O)c(Cl)c1`, the GI50 was above 25 µM and the TGI was above 25 µM.

Regarding `CCN(Cc1ccccc1C)c1ccc(CO)c(Cl)c1`, the GI50 was 4.04 µM and the TGI was 23.5 µM.

`O=C(O)CC(NC(=O)CP(=O)(O)O)C(=O)O` (centres undefined): the TGI is above 10000 µM.

For the compound `NC(=O)OCCn1cc(-c2nc(-c3c[nH]c4ncccc34)cs2)c2ccccc21`, the GI50 was 2.04 µM and the TGI stood at 8.03 µM.

For `Cn1cc(C2=C(c3cccc(Br)c3)C(=O)NC2=O)c2ccccc21`, the GI50 was 20.1 µM and the TGI is above 25 µM.

Take `O=CN1CCN(CC(O)CN2CCCCC2)CC1` (centres undefined): the TGI is above 100 µM.

Regarding `Cc1[nH]c(/C=C2\C(=O)Nc3ccccc32)c(C)c1CCC(=O)O`, the TGI is 65 µM and 75.3 µM.

In the case of `c1ccc2c(c1)c1c(c3ccccc32)CN2CCCC2C1` (centres undefined), the TGI was above 24.2 µM.

As for `NCCSc1nc(-c2ccccc2)c(-c2ccccc2)o1`, the TGI was above 100 µM.

As to `O=C(c1ccc(/C=C/c2n[nH]c3ccccc23)cc1)N1CCNCC1`, the GI50 is 4.21 µM and 10.5 µM; the TGI was > 10 µM and 47.3 µM.

For `O=C(Nc1ccc(-n2ccc3c(NC(=O)c4ccccc4)nccc32)cc1)Nc1ccc(Cl)c(Cl)c1`, the GI50 is 0.482 µM and the TGI was found to be 3.08 µM.

Regarding `Cc1cc(C)c(NC(=O)c2sc3nc4c(cc3c2N)CN(Cc2ccccc2)CC4)c(C)c1`, the GI50 was 3.18 µM and the TGI came out at 35.1 µM.

Turning to `N#CC1=C(N)Oc2cc(O)ccc2C1c1cccc2ccccc12` (centres undefined), the GI50 was 10.9 µM and the TGI was determined as 41.7 µM.

On to `C=C1C(=O)O[C@H]2[C@H]1CC/C(COC(=O)/C=C\C(=O)NCc1ccc(Cn3c(=O)sn(CCCC)c3=O)cc1)=C\CC[C@@]1(C)O[C@@H]21`, for which the GI50 was 0.274 µM and the TGI worked out at 0.949 µM.

The subject of the next experiment is U251 CNS. As to the kind of experiment: inhibition of tumour cell growth, NCI panel, 48 h.
For `CC(=O)Oc1ccccc1C(=O)Nc1ncc([N+](=O)[O-])s1`, the GI50 is 1.38 µM; the TGI is 20.7 µM and > 100 µM.

Take `O=C1NC(=O)C(c2cccc([N+](=O)[O-])c2)=C1Nc1cc(Cl)c(O)c(Cl)c1`: the GI50 was above 25 µM and the TGI was above 25 µM.

On to `CCN(Cc1ccccc1C)c1ccc(CO)c(Cl)c1`, for which the GI50 was 2.84 µM and the TGI amounted to 17.1 µM.

For `O=C(O)CC(NC(=O)CP(=O)(O)O)C(=O)O` (centres undefined), the TGI is above 10000 µM.

For the compound `NC(=O)OCCn1cc(-c2nc(-c3c[nH]c4ncccc34)cs2)c2ccccc21`, the GI50 is 1.91 µM and the TGI came to 5.08 µM.

With `Cn1cc(C2=C(c3cccc(Br)c3)C(=O)NC2=O)c2ccccc21`, the GI50 is 12.3 µM and the TGI was above 25 µM.

In the case of `O=CN1CCN(CC(O)CN2CCCCC2)CC1` (centres undefined), the TGI is above 100 µM.

As for `Cc1[nH]c(/C=C2\C(=O)Nc3ccccc32)c(C)c1CCC(=O)O`, the GI50 is 38.1 µM and the TGI was above 100 µM.

With `c1ccc2c(c1)c1c(c3ccccc32)CN2CCCC2C1` (centres undefined), the TGI amounted to 23.1 µM.

Compound `NCCSc1nc(-c2ccccc2)c(-c2ccccc2)o1` gave a TGI above 100 µM.

Regarding `O=C(c1ccc(/C=C/c2n[nH]c3ccccc23)cc1)N1CCNCC1`, the GI50 was 1.81 µM and 12.2 µM; the TGI was 3.33 µM and 27.2 µM.

Turning to `O=C(Nc1ccc(-n2ccc3c(NC(=O)c4ccccc4)nccc32)cc1)Nc1ccc(Cl)c(Cl)c1`, the GI50 was 0.373 µM and the TGI is 1.92 µM.

`Cc1cc(C)c(NC(=O)c2sc3nc4c(cc3c2N)CN(Cc2ccccc2)CC4)c(C)c1`: the GI50 is 4.35 µM and the TGI amounted to 24.2 µM.

As for `N#CC1=C(N)Oc2cc(O)ccc2C1c1cccc2ccccc12` (centres undefined), the GI50 was 16.6 µM and the TGI is 43 µM.

`C=C1C(=O)O[C@H]2[C@H]1CC/C(COC(=O)/C=C\C(=O)NCc1ccc(Cn3c(=O)sn(CCCC)c3=O)cc1)=C\CC[C@@]1(C)O[C@@H]21`: the GI50 is 1.43 µM and the TGI worked out at 3.2 µM.

The test system of another experiment is CAKI-1 renal. As to the kind of experiment: inhibition of tumour cell growth, NCI panel, 48 h.
As for `CC(=O)Oc1ccccc1C(=O)Nc1ncc([N+](=O)[O-])s1`, the GI50 was 2.64 µM and the TGI was above 100 µM.

Consider `O=C1NC(=O)C(c2cccc([N+](=O)[O-])c2)=C1Nc1cc(Cl)c(O)c(Cl)c1`, for which the GI50 was above 20.9 µM and the TGI is above 25 µM.

With `CCN(Cc1ccccc1C)c1ccc(CO)c(Cl)c1`, the GI50 is 7.88 µM and the TGI was 32 µM.

With `O=C(O)CC(NC(=O)CP(=O)(O)O)C(=O)O` (centres undefined), the GI50 is 272 µM and the TGI was found to be 7240 µM.

Regarding `NC(=O)OCCn1cc(-c2nc(-c3c[nH]c4ncccc34)cs2)c2ccccc21`, the GI50 is 2.42 µM and the TGI amounted to 8.54 µM.

Turning to `Cn1cc(C2=C(c3cccc(Br)c3)C(=O)NC2=O)c2ccccc21`, the GI50 was 9.63 µM and the TGI was above 25 µM.

Regarding `O=CN1CCN(CC(O)CN2CCCCC2)CC1` (centres undefined), the TGI is above 100 µM.

With `Cc1[nH]c(/C=C2\C(=O)Nc3ccccc32)c(C)c1CCC(=O)O`, the GI50 is 15.9 µM; the TGI was 68.1 µM and > 100 µM.

Consider `c1ccc2c(c1)c1c(c3ccccc32)CN2CCCC2C1` (centres undefined), for which the TGI was above 100 µM.

Compound `NCCSc1nc(-c2ccccc2)c(-c2ccccc2)o1` registered a TGI above 100 µM.

Consider `O=C(c1ccc(/C=C/c2n[nH]c3ccccc23)cc1)N1CCNCC1`, for which the GI50 was 4.96 µM and 1.35 µM; the TGI is > 10 µM and 9.11 µM.

With `O=C(Nc1ccc(-n2ccc3c(NC(=O)c4ccccc4)nccc32)cc1)Nc1ccc(Cl)c(Cl)c1`, the GI50 is 1.65 µM and the TGI came out at 6.88 µM.

On to `Cc1cc(C)c(NC(=O)c2sc3nc4c(cc3c2N)CN(Cc2ccccc2)CC4)c(C)c1`, for which the GI50 is 2.81 µM and the TGI was above 100 µM.

`N#CC1=C(N)Oc2cc(O)ccc2C1c1cccc2ccccc12` (centres undefined): the GI50 is 8.55 µM and the TGI stood at 27 µM.

In the case of `C=C1C(=O)O[C@H]2[C@H]1CC/C(COC(=O)/C=C\C(=O)NCc1ccc(Cn3c(=O)sn(CCCC)c3=O)cc1)=C\CC[C@@]1(C)O[C@@H]21`, the GI50 was 0.328 µM and the TGI is 1.48 µM.

For a further experiment, the system named is MCF7 breast. Kind of experiment: inhibition of tumour cell growth, NCI panel, 48 h.
Turning to `CC(=O)Oc1ccccc1C(=O)Nc1ncc([N+](=O)[O-])s1`, the GI50 was 2.26 µM; the TGI was 10.3 µM and > 100 µM.

With `O=C1NC(=O)C(c2cccc([N+](=O)[O-])c2)=C1Nc1cc(Cl)c(O)c(Cl)c1`, the GI50 was above 25 µM and the TGI was above 25 µM.

`CCN(Cc1ccccc1C)c1ccc(CO)c(Cl)c1`: the GI50 is 2 µM and the TGI came to 14.7 µM.

`O=C(O)CC(NC(=O)CP(=O)(O)O)C(=O)O` (centres undefined) registered a TGI above 10000 µM.

`NC(=O)OCCn1cc(-c2nc(-c3c[nH]c4ncccc34)cs2)c2ccccc21`: the GI50 was 0.989 µM and the TGI came out at 5.31 µM.

`Cn1cc(C2=C(c3cccc(Br)c3)C(=O)NC2=O)c2ccccc21`: the GI50 was 6.08 µM and the TGI is above 25 µM.

In turn, `O=CN1CCN(CC(O)CN2CCCCC2)CC1` (centres undefined) showed a TGI above 100 µM.

With `Cc1[nH]c(/C=C2\C(=O)Nc3ccccc32)c(C)c1CCC(=O)O`, the GI50 was 23.9 µM and the TGI is above 100 µM.

Compound `c1ccc2c(c1)c1c(c3ccccc32)CN2CCCC2C1` (centres undefined) displayed a TGI of 11.4 µM.

As to `NCCSc1nc(-c2ccccc2)c(-c2ccccc2)o1`, the TGI is above 100 µM.

For `O=C(c1ccc(/C=C/c2n[nH]c3ccccc23)cc1)N1CCNCC1`, the TGI was 2.46 µM and 15.5 µM.

Take `O=C(Nc1ccc(-n2ccc3c(NC(=O)c4ccccc4)nccc32)cc1)Nc1ccc(Cl)c(Cl)c1`: the GI50 is 1.1 µM and the TGI was found to be 2.37 µM.

Take `Cc1cc(C)c(NC(=O)c2sc3nc4c(cc3c2N)CN(Cc2ccccc2)CC4)c(C)c1`: the GI50 was 1.61 µM and the TGI turned out to be 32.2 µM.

On to `N#CC1=C(N)Oc2cc(O)ccc2C1c1cccc2ccccc12` (centres undefined), for which the GI50 is 8.69 µM and the TGI stood at 24.5 µM.

`C=C1C(=O)O[C@H]2[C@H]1CC/C(COC(=O)/C=C\C(=O)NCc1ccc(Cn3c(=O)sn(CCCC)c3=O)cc1)=C\CC[C@@]1(C)O[C@@H]21`: the GI50 is 0.365 µM and the TGI worked out at 2.03 µM.

The subject of the next experiment is SK-OV-3 ovarian. As to the kind of experiment: inhibition of tumour cell growth, NCI panel, 48 h.
Consider `CC(=O)Oc1ccccc1C(=O)Nc1ncc([N+](=O)[O-])s1`, for which the GI50 was 3.2 µM and the TGI was above 80.3 µM.

For `O=C1NC(=O)C(c2cccc([N+](=O)[O-])c2)=C1Nc1cc(Cl)c(O)c(Cl)c1`, the GI50 is 12 µM and the TGI was above 25 µM.

On to `CCN(Cc1ccccc1C)c1ccc(CO)c(Cl)c1`, for which the GI50 was 13.7 µM and the TGI came to 31.5 µM.

`O=C(O)CC(NC(=O)CP(=O)(O)O)C(=O)O` (centres undefined) showed a TGI above 7930 µM.

As for `NC(=O)OCCn1cc(-c2nc(-c3c[nH]c4ncccc34)cs2)c2ccccc21`, the GI50 is 1.54 µM and the TGI was 6.44 µM.

In the case of `Cn1cc(C2=C(c3cccc(Br)c3)C(=O)NC2=O)c2ccccc21`, the GI50 was 10.3 µM and the TGI was above 25 µM.

Turning to `O=CN1CCN(CC(O)CN2CCCCC2)CC1` (centres undefined), the TGI is above 100 µM.

Turning to `Cc1[nH]c(/C=C2\C(=O)Nc3ccccc32)c(C)c1CCC(=O)O`, the GI50 is 19.5 µM; the TGI was 59.5 µM and 80.6 µM.

In turn, `c1ccc2c(c1)c1c(c3ccccc32)CN2CCCC2C1` (centres undefined) came in with a TGI above 100 µM.

For `NCCSc1nc(-c2ccccc2)c(-c2ccccc2)o1`, the TGI is above 100 µM.

In the case of `O=C(c1ccc(/C=C/c2n[nH]c3ccccc23)cc1)N1CCNCC1`, the GI50 is > 10 µM and 5.15 µM; the TGI was > 10 µM and 20.4 µM.

`O=C(Nc1ccc(-n2ccc3c(NC(=O)c4ccccc4)nccc32)cc1)Nc1ccc(Cl)c(Cl)c1`: the GI50 was 1.2 µM and the TGI was 3.29 µM.

For `Cc1cc(C)c(NC(=O)c2sc3nc4c(cc3c2N)CN(Cc2ccccc2)CC4)c(C)c1`, the GI50 was 5.35 µM and the TGI is above 100 µM.

In the case of `N#CC1=C(N)Oc2cc(O)ccc2C1c1cccc2ccccc12` (centres undefined), the GI50 is 18.1 µM and the TGI came to 42.9 µM.

For the compound `C=C1C(=O)O[C@H]2[C@H]1CC/C(COC(=O)/C=C\C(=O)NCc1ccc(Cn3c(=O)sn(CCCC)c3=O)cc1)=C\CC[C@@]1(C)O[C@@H]21`, the GI50 was 3.33 µM and the TGI was 8.55 µM.
